{
  "source": "patent US20120189566A1",
  "about": "(DAIICHI FINE CHEMICAL CO., LTD., priority 2009, published 2012)",
  "key": {"[1]": {"assay": "pH stability of pantethine-4′,4″-diphosphate, pantethine-4′-phosphate and pantethine (Example 2)", "assay_type": "physicochemical", "conditions": "pH 4 or lower, or pH 7 or higher; 0.1% (w/v) in 50 mM buffer, 40° C. for 3 months; diphosphate tested as sodium salt"}, "[2]": {"assay": "pH stability of barium pantethine-4′,4″-diphosphate, pantethine and calcium pantetheine-5-sulfonate (Example 1)", "conditions": "0.1% (w/v) in 50 mM buffer, 40° C. for 6 months, diphosphate tested as barium salt", "quoted_text": "Sodium citrate buffer solutions were used as buffer solutions at pH 3, 4, 5 and 6. Sodium phosphate buffer solutions were used as buffer solutions at pH 6.5 and 7. Tris-HCl buffer solutions were used as buffer solutions at pH 8 and 9.5."}, "[3]": {"test_system": "LabCyte MELANO-MODEL, human skin three-dimensional model containing melanocytes", "assay": "Melanin production inhibition test in human skin three-dimensional model", "assay_type": "cell-based", "conditions": "for IC50: read-out: concentration at which melanin production inhibition rate reaches 50%, from plots in FIG. 5, kojic acid 0.1% = 100% inhibition, PBS = 0%", "description": "The culture medium and the applied sample solution were exchanged every 2 or 3 days. After the completion of the culture, the percentage of viable cells was measured by an MTT (methylthiazole tetrazolium) assay. Further, a melanin amount was measured.\nMelanin amount: The skin cells after the MTT assay were immersed in a reagent obtained by dissolving 1% SDS, 0.05 mM EDTA, and a 10 mM tris-HCl buffer solution (pH 7.2). 3 μL of a 5 mg/mL Proteinase K was added and the solution was heated in a water bath at 45° C. overnight to dissolve the skin. A 30% hydrogen peroxide solution and a 500 mM sodium carbonate solution were added thereto, the solution was mixed well and heated in a water bath at 80° C. for 30 min, and impurities were removed by chloroform/methanol (2/1). At the same time, melanin solutions were prepared by similar operations to prepare a calibration curve, and a melanin amount in the cultured skin cells was determined."}, "[4]": {"assay": "Stability of pantetheine-4′-phosphate, pantetheine and pantethine (Example 4)", "conditions": "40° C. for 1 month; for amount of disulfide produced from the compound: alkaline condition (pH 8 and pH 9.5)", "protocol": "Fifty mM sodium citrate buffer solutions (pH 3, 4, 5, and 6), a 50 mM sodium phosphate buffer solution (pH 7), and 50 mM tris-HCl buffer solutions (pH 8, 9.5) containing 0.1% (w/v) of pantetheine-4′-phosphate were prepared. Each 0.4 mL of the solutions was encapsulated in a 1 mL-glass ampule and heated at 40° C. for 1 month. Samples before and after the heating were analyzed by an HPLC to measure the content of pantetheine-4′-phosphate."}, "[5]": {"conditions": "ratio of 50% inhibition concentrations"}},
  "data": [
    {"compound": "CC(C)(COP(=O)(O)O)[C@@H](O)C(=O)NCCC(=O)NCCSSCCNC(=O)CCNC(=O)[C@H](O)C(C)(C)COP(=O)(O)O", "note": "[Pantethine-4′,4″-diphosphate, pantethine-4′,4″-diphosphate]", "values": [
      {"measurement": "stability (content by HPLC before and after heating)", "setting": "[1]", "result": "stable"}
    ]},
    {"compound": "CC(C)(CO)[C@@H](O)C(=O)NCCC(=O)NCCSS(=O)(=O)[O-].CC(C)(CO)[C@@H](O)C(=O)NCCC(=O)NCCSS(=O)(=O)[O-].[Ca+2]", "note": "[calcium pantetheine-5-sulfonate]", "values": [
      {"measurement": "stability (content by HPLC before and after heating)", "setting": "[2]; between pH 5 and 6", "result": "stable"},
      {"measurement": "stability (content by HPLC before and after heating)", "setting": "[2]; pH 4 or lower, or pH 6.5 or higher", "result": "clearly degraded"}
    ]},
    {"compound": "O=c1cc(CO)occ1O", "note": "[kojic acid]", "values": [
      {"measurement": "melanin production amount, relative to the case where only PBS was added", "setting": "[3]; 0.1% (7 mM), culture for 2 weeks", "result": 30, "unit": "%"}
    ]},
    {"compound": "CC(C)(COP(=O)(O)O)[C@@H](O)C(=O)NCCC(=O)NCCS", "note": "[pantetheine-4′-phosphate]", "values": [
      {"measurement": "amount of disulfide produced from the compound", "setting": "[4]", "result": "did not decrease"},
      {"measurement": "stability (content by HPLC before and after heating)", "setting": "[4]; pH 3 and 4, 0.1% (w/v) in 50 mM buffer", "result": "improved from pantetheine"},
      {"measurement": "stability: oxidation to the disulfide", "setting": "[4]; pH 5 or higher, 0.1% (w/v) in 50 mM buffer", "result": "oxidized and changed to pantethine-4′,4″-diphosphate"},
      {"measurement": "stability: remaining compound", "setting": "[4]; pH 7 or higher, 0.1% (w/v) in 50 mM buffer", "result": "neither the pantetheine-4′-phosphate nor pantetheine remained"}
    ]},
    {"compound": "CC(C)(CO)[C@@H](O)C(=O)NCCC(=O)NCCS", "note": "[pantetheine]", "values": [
      {"measurement": "amount of disulfide produced from the compound", "setting": "[4]", "result": "decrease in the amount of pantethine produced"}
    ]},
    {"compound": "O=C1O[C@H]([C@@H](O)CO)C(O)=C1OP(=O)(O)O", "note": "[sodium ascorbyl-2-phosphate]", "values": [
      {"measurement": "IC50", "setting": "[3]; culture for 2 weeks", "result": 54, "unit": "mM"}
    ]},
    {"compound": "pantethine-4′,4″-di-β-galactoside", "values": [
      {"measurement": "IC50", "setting": "[3]; culture for 2 weeks", "result": 77, "unit": "mM"}
    ]},
    {"compound": "sodium pantethine-4′,4″-diphosphate", "values": [
      {"measurement": "whitening activity relative to pantethine", "setting": "[3]; [5]", "result": 1.7, "unit": "fold"},
      {"measurement": "whitening activity relative to sodium ascorbyl-2-phosphate", "setting": "[3]; [5]", "result": 17, "unit": "times"},
      {"measurement": "IC50", "setting": "[3]; culture for 2 weeks", "result": 3.1, "unit": "mM"}
    ]}
  ]
}
